Reference: PMC9610081, “Design and Synthesis of Aminopyrimidinyl Pyrazole Analogs as PLK1 Inhibitors Using Hybrid 3D-QSAR and Molecular Docking” (Pharmaceuticals, 2022)

Target: PLK1 (polo-like kinase 1) (Homo sapiens, UniProt P53350)
Experiment: radiometric […]-ATP kinase assay, casein substrate, […] ATP (Reaction Biology)
Format: biochemical

Sequence of PLK1 (polo-like kinase 1) (P53350 2-603): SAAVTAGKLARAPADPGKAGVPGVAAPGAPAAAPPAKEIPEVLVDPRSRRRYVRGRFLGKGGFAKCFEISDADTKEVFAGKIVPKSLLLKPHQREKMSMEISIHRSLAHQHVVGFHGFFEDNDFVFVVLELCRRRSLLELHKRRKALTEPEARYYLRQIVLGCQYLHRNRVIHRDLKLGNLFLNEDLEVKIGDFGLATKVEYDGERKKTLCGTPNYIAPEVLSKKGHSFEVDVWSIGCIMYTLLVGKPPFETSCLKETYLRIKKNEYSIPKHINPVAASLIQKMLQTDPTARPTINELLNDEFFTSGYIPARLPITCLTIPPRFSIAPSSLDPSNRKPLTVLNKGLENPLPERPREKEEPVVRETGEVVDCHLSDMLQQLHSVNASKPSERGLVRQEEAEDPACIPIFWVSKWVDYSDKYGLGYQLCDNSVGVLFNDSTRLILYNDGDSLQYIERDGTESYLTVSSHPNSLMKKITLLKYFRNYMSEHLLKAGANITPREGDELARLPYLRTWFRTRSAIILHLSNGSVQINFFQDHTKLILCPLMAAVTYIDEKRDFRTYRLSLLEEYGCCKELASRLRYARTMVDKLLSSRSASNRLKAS

Structure (SMILES)	IC50 [nM]
CCOC(=O)c1nn(-c2ccnc(Nc3ccc4c(c3)N(C(=O)N(C)C)CC4)n2)cc1/C=C/c1ccccc1 [D39, Ethyl (E)-1-(2-((1-(dimethylcarbamoyl)indolin-6-yl)amino)pyrimidin-4-yl)-4-styryl-1H-pyrazole-3-carboxylate]	1430
CN(C)C(=O)N1CCc2ccc(Nc3nccc(-n4cc(/C=C/c5ccccc5)c(C(N)=O)n4)n3)cc21 [D40, (E)-6-((4-(3-carbamoyl-4-styryl-1H-pyrazol-1-yl)pyrimidin-2-yl)amino)-N,N-dimethylindoline-1-carboxamide]	359
